{
  "source": "paper PMC9199881",
  "about": "(Clinical and Translational Science, 2022)",
  "key": {"[1]": {"assay": "Plasma pharmacokinetics, Part B", "conditions": "for AUC(0-inf) / Cmax / Tmax / half-life: human, in vivo, 400 mg, 400 mg single dose alone; for AUC(0-inf): AUC0–∞"}, "[2]": {"test_system": "collagen-induced arthritis in rats", "conditions": "cited from earlier work"}, "healthy subjects": {"test_system": "healthy subjects", "assay": "Safety assessment", "type": "in vivo, human", "conditions": "Part A"}, "[3]": {"test_system": "mouse immune thrombocytopenia model", "conditions": "cited from earlier work"}, "other CYP enzymes": {"test_system": "other CYP enzymes", "conditions": "enzymatic studies; cited from earlier work"}, "[4]": {"assay": "Plasma pharmacokinetics, Part A", "type": "in vivo, human", "conditions": "for AUC(0-t) / AUC(0-inf) / Cmax / Tmax / half-life: human, plasma, oral; for AUC(0-t): AUC0–last; for AUC(0-inf): AUC0–∞"}, "[5]": {"conditions": "rilzabrutinib 100 mg + ritonavir 100 mg"}, "[6]": {"conditions": "1200 mg, Mean (SD), rilzabrutinib 1200 mg single dose"}, "[7]": {"conditions": "1200 mg, Median (range), rilzabrutinib 1200 mg single dose"}, "[8]": {"conditions": "Mean (SD), rilzabrutinib 100 mg + ritonavir 100 mg b.i.d., rilzabrutinib in plasma"}, "[9]": {"conditions": "Median (range), rilzabrutinib 100 mg + ritonavir 100 mg b.i.d., rilzabrutinib in plasma"}, "[10]": {"conditions": "rilzabrutinib 100 mg + ritonavir 100 mg vs 100 mg alone"}},
  "data": [
    {"smiles": "CC(C)(/C=C(\\C#N)C(=O)N1CCC[C@@H](n2nc(-c3ccc(Oc4ccccc4)cc3F)c3c(N)ncnc32)C1)N1CCN(C2COC2)CC1", "note": "[Rilzabrutinib, rilzabrutinib]", "values": [
      {"measurement": "AUC(0-inf)", "setting": "[1]; Mean (SD)", "value": 454, "unit": "ng·h/mL"},
      {"measurement": "AUC(0-inf)", "setting": "[1]; Median (range)", "value": 312, "unit": "ng·h/mL"},
      {"measurement": "Cmax", "setting": "[1]; Mean (SD)", "value": 144, "unit": "ng/mL"},
      {"measurement": "Cmax", "setting": "[1]; Median (range)", "value": 102, "unit": "ng/mL"},
      {"measurement": "Tmax", "setting": "[1]; Mean (SD)", "value": 2.1, "unit": "h"},
      {"measurement": "Tmax", "setting": "[1]; Median (range)", "value": "~2.1", "unit": "h"},
      {"measurement": "half-life", "setting": "[1]; t 1/2, Mean (SD)", "value": 3.9, "unit": "h"},
      {"measurement": "half-life", "setting": "[1]; t 1/2, Median (range)", "value": 3.1, "unit": "h"},
      {"measurement": "increase in rilzabrutinib Cmax with ritonavir", "setting": "[1]; rilzabrutinib 400 mg + ritonavir 100 mg BID vs 400 mg alone", "value": 5, "unit": "fold"},
      {"measurement": "effect on disease", "setting": "[2]", "value": "dose‐dependent reduction and complete reversal of disease"},
      {"measurement": "serious TEAEs, deaths, or TEAEs leading to study drug interruption/discontinuation", "setting": "healthy subjects", "value": "no serious TEAEs, deaths, or TEAEs leading to study drug interruption/discontinuation"},
      {"measurement": "severity of rilzabrutinib-related TEAEs", "setting": "healthy subjects", "value": "mostly mild (grade 1)"},
      {"measurement": "participants with TEAEs deemed related to rilzabrutinib treatment", "setting": "healthy subjects; 100 mg plus ritonavir 100 mg, one event in one participant", "value": 9.1, "unit": "%"},
      {"measurement": "participants with TEAEs deemed related to rilzabrutinib treatment (GI-related)", "setting": "healthy subjects; 1200 mg, five events in three participants", "value": 75, "unit": "%"},
      {"measurement": "rilzabrutinib-related TEAEs", "setting": "healthy subjects; following 100 mg rilzabrutinib", "value": "no rilzabrutinib‐related TEAEs reported"},
      {"measurement": "Treatment-related TEAE: Diarrhea, n (%)", "setting": "healthy subjects; rilzabrutinib 100 mg", "value": "0 n (%)"},
      {"measurement": "Treatment-related TEAE: Dizziness, n (%)", "setting": "healthy subjects; rilzabrutinib 100 mg", "value": "0 n (%)"},
      {"measurement": "Treatment-related TEAE: Gastrointestinal disorders, n (%)", "setting": "healthy subjects; rilzabrutinib 100 mg", "value": "0 n (%)"},
      {"measurement": "Treatment-related TEAE: Nausea, n (%)", "setting": "healthy subjects; rilzabrutinib 100 mg", "value": "0 n (%)"},
      {"measurement": "Treatment-related TEAE: Nervous system disorders, n (%)", "setting": "healthy subjects; rilzabrutinib 100 mg", "value": "1 (8.3) n (%)"},
      {"measurement": "Treatment-related TEAE: Orthostatic hypotension, n (%)", "setting": "healthy subjects; rilzabrutinib 100 mg", "value": "0 n (%)"},
      {"measurement": "Treatment-related TEAE: Subjects with ≥1 TEAE, n (%)", "setting": "healthy subjects; rilzabrutinib 100 mg", "value": "0 n (%)"},
      {"measurement": "Treatment-related TEAE: Vascular disorders, n (%)", "setting": "healthy subjects; rilzabrutinib 100 mg", "value": "0 n (%)"},
      {"measurement": "Treatment-related TEAE: Vomiting, n (%)", "setting": "healthy subjects; rilzabrutinib 100 mg", "value": "0 n (%)"},
      {"measurement": "Treatment-related TEAE: Diarrhea, n (%)", "setting": "healthy subjects; [5]", "value": "0 n (%)"},
      {"measurement": "Treatment-related TEAE: Dizziness, n (%)", "setting": "healthy subjects; [5]", "value": "1 (9.1) n (%)"},
      {"measurement": "Treatment-related TEAE: Gastrointestinal disorders, n (%)", "setting": "healthy subjects; [5]", "value": "0 n (%)"},
      {"measurement": "Treatment-related TEAE: Nausea, n (%)", "setting": "healthy subjects; [5]", "value": "0 n (%)"},
      {"measurement": "Treatment-related TEAE: Orthostatic hypotension, n (%)", "setting": "healthy subjects; [5]", "value": "0 n (%)"},
      {"measurement": "Treatment-related TEAE: Subjects with ≥1 TEAE, n (%)", "setting": "healthy subjects; [5]", "value": "1 (9.1) n (%)"},
      {"measurement": "Treatment-related TEAE: Vascular disorders, n (%)", "setting": "healthy subjects; [5]", "value": "0 n (%)"},
      {"measurement": "Treatment-related TEAE: Vomiting, n (%)", "setting": "healthy subjects; [5]", "value": "0 n (%)"},
      {"measurement": "Treatment-related TEAE: Diarrhea, n (%)", "setting": "healthy subjects; rilzabrutinib 1200 mg", "value": "2 (50.0) n (%)"},
      {"measurement": "Treatment-related TEAE: Dizziness, n (%)", "setting": "healthy subjects; rilzabrutinib 1200 mg", "value": "1 (25.0) n (%)"},
      {"measurement": "Treatment-related TEAE: Gastrointestinal disorders, n (%)", "setting": "healthy subjects; rilzabrutinib 1200 mg", "value": "3 (75.0) n (%)"},
      {"measurement": "Treatment-related TEAE: Nausea, n (%)", "setting": "healthy subjects; rilzabrutinib 1200 mg", "value": "2 (50.0) n (%)"},
      {"measurement": "Treatment-related TEAE: Nervous system disorders, n (%)", "setting": "healthy subjects; rilzabrutinib 1200 mg", "value": "1 (25.0) n (%)"},
      {"measurement": "Treatment-related TEAE: Orthostatic hypotension, n (%)", "setting": "healthy subjects; rilzabrutinib 1200 mg", "value": "1 (25.0) n (%)"},
      {"measurement": "Treatment-related TEAE: Subjects with ≥1 TEAE, n (%)", "setting": "healthy subjects; rilzabrutinib 1200 mg", "value": "3 (75.0) n (%)"},
      {"measurement": "Treatment-related TEAE: Vascular disorders, n (%)", "setting": "healthy subjects; rilzabrutinib 1200 mg", "value": "1 (25.0) n (%)"},
      {"measurement": "Treatment-related TEAE: Vomiting, n (%)", "setting": "healthy subjects; rilzabrutinib 1200 mg", "value": "1 (25.0) n (%)"},
      {"measurement": "tolerability", "setting": "healthy subjects; single dose of 100 mg", "value": "well tolerated"},
      {"measurement": "anti-inflammatory effects", "setting": "[3]", "value": "rapid and significant anti‐inflammatory effects"},
      {"measurement": "interaction with other CYP enzymes", "setting": "other CYP enzymes", "value": "no significant interaction"},
      {"measurement": "AUC(0-t)", "setting": "[4]; [6]", "value": 2470, "unit": "ng·h/mL"},
      {"measurement": "AUC(0-t)", "setting": "[4]; [7]", "value": 551, "unit": "ng·h/mL"},
      {"measurement": "AUC(0-inf)", "setting": "[4]; [6]", "value": 2470, "unit": "ng·h/mL"},
      {"measurement": "AUC(0-inf)", "setting": "[4]; [7]", "value": 553, "unit": "ng·h/mL"},
      {"measurement": "Cmax", "setting": "[4]; [6]", "value": 569, "unit": "ng/mL"},
      {"measurement": "Cmax", "setting": "[4]; [7]", "value": 136, "unit": "ng/mL"},
      {"measurement": "Tmax", "setting": "[4]; [6]", "value": 2.9, "unit": "h"},
      {"measurement": "Tmax", "setting": "[4]; [7]", "value": "~3", "unit": "h"},
      {"measurement": "half-life", "setting": "[4]; 1200 mg, t 1/2, Mean (SD), rilzabrutinib 1200 mg single dose", "value": 3.1, "unit": "h"},
      {"measurement": "half-life", "setting": "[4]; 1200 mg, t 1/2, Median (range), rilzabrutinib 1200 mg single dose", "value": 3.2, "unit": "h"},
      {"measurement": "AUC(0-t)", "setting": "[4]; [8]", "value": 1080, "unit": "ng·h/mL"},
      {"measurement": "AUC(0-t)", "setting": "[4]; [9]", "value": 771, "unit": "ng·h/mL"},
      {"measurement": "AUC(0-inf)", "setting": "[4]; [8]", "value": 1100, "unit": "ng·h/mL"},
      {"measurement": "AUC(0-inf)", "setting": "[4]; [9]", "value": 778, "unit": "ng·h/mL"},
      {"measurement": "Cmax", "setting": "[4]; [8]", "value": 223, "unit": "ng/mL"},
      {"measurement": "Cmax", "setting": "[4]; [9]", "value": 157, "unit": "ng/mL"},
      {"measurement": "Tmax", "setting": "[4]; [8]", "value": 2.3, "unit": "h"},
      {"measurement": "Tmax", "setting": "[4]; [9]", "value": 2.5, "unit": "h"},
      {"measurement": "half-life", "setting": "[4]; t 1/2, Mean (SD), rilzabrutinib 100 mg + ritonavir 100 mg b.i.d., rilzabrutinib in plasma", "value": 4, "unit": "h"},
      {"measurement": "half-life", "setting": "[4]; t 1/2, Median (range), rilzabrutinib 100 mg + ritonavir 100 mg b.i.d., rilzabrutinib in plasma", "value": 4, "unit": "h"},
      {"measurement": "increase in rilzabrutinib AUC0–∞ with ritonavir over rilzabrutinib alone", "setting": "[4]; [10]", "value": 17, "unit": "fold"},
      {"measurement": "increase in rilzabrutinib Cmax with ritonavir over rilzabrutinib alone", "setting": "[4]; [10]", "value": 7, "unit": "fold"},
      {"measurement": "Tmax, Median (range)", "setting": "[4]; rilzabrutinib 100 mg single dose", "value": "1.0 (0.5–2.0) h"},
      {"measurement": "Tmax, Median (range)", "setting": "[4]; rilzabrutinib 1200 mg single dose", "value": "3.0 (1.5–4.0) h"}
    ]}
  ]
}
